The source of these data is publication PMC12059944, “Synthesis and Antileishmanial Evaluation of N-Phenyl-2-phenoxyacetamides Derived from Carvacrol” (ACS Omega, 2025).

Series [1] can be described thus: Cytotoxicity assay in macrophage RAW 264.7 (resazurin). Conditions: mouse, RAW 264.7 macrophages, pH 7.2; RAW 264.7 cells, 200 to 1.56 μM, 48 h treatment, resazurin. It is filed as cell-based. The protocol: (§1) RAW 264.7 cells were cultured in Roswell Park Memorial Institute (RPMI) medium, pH 7.2, supplemented with 10% (v/v) heat-inactivated fetal bovine serum (FBS) (Gibco), 100 μg mL^–1 penicillin (Sigma), 2 g L^–1 sodium bicarbonate, 2 mM L-glutamine, and 25 mM HEPES, and maintained at 37 °C in a humidified incubator with 5% CO2 atmosphere.[27] The cells were then seeded into sterile 96-well plates at a density of 5 × 10^4 cells/well, followed by the addition of the compounds at a concentration of 10 μM for screening, and in a range of 200 μM to 1.56 μM for the determination of the 50% cytotoxic concentration (CC50). Controls included 1% DMSO and amphotericin B at 3.125 μg mL^–1, with 48 h of treatment. Cell viability was assessed using 1 mM resazurin, with subsequent readings performed on a Spectramax spectrophotometer at wavelengths of 570 and 600 nm.

Series [2] deals with Vero cells. Kind of series: Cytotoxicity assay in Vero cells (MTT). It counts as cell-based, African green monkey (Cercopithecus aethiops). As to the method:
(§2) The Vero cell (ATCC, CCL-81) was cultured in Dulbecco’s modified Eagle medium (DMEM), pH 7.3, supplemented with 10% FBS (v/v) and a penicillin/streptomycin solution (0.1 mg mL^–1/100 U mL^–1). The cells were incubated at 37 °C in a humidified atmosphere with 5% CO2. The MTT reduction assay (3-(4,5-dimethylthiazol-2-yl)-2,5-diphenyltetrazolium bromide) was adapted from Mosmann[43] to evaluate cytotoxicity. For this assay, 1 × 10^4 cells per well were seeded in 96-well plates and incubated overnight until reaching approximately 80% confluence. Wells were treated with different compound concentrations (500 to 7.8 μM) in triplicate. The culture medium was replaced with 0.5 mg mL^–1 MTT solution, and the plate was incubated for 3 h. The resulting formazan crystals were solubilized in DMSO, and absorbance was measured using a Spectramax spectrophotometer at a wavelength of 540 nm to assess cell viability.

A short description of series [3]: Cytotoxicity assay in Vero cells (MTT). It counts as cell-based, African green monkey (Cercopithecus aethiops). The settings on record: African green monkey, Vero cells (ATCC CCL-81), pH 7.3, MTT, 1 × 10^4 cells per well, 500 to 7.8 μM. As to the method: as §2
In series [4] the test system is RAW 264.7 macrophages. Kind of series: Cytotoxicity assay in macrophage RAW 264.7 (resazurin). It counts as cell-based. The settings on record: RAW 264.7 cells, highest concentration (200 μM), 48 h. As to the method:
as §1

In series [5] the test system is L. braziliensis MHOM/BR/75/M2904. As to the kind of experiment: In vitro infection of RAW 264.7 macrophages by L. braziliensis-GFP (leishmanicidal screening). Conditions: Leishmania braziliensis; for viability at 10 µM: RAW264.7, 48 h, read-out: parasite viability; for IC50: RAW264.7, suggested from the 10 μM screening, L. braziliensis in RAW 264.7 macrophages, 48 h. It is filed as cell-based. The protocol: L. braziliensis MHOM/BR/75/M2904 was cultured in Grace’s insect medium (pH 6.5) supplemented with 10% (v/v) heat-inactivated fetal bovine serum (FBS) (Gibco), 100 μg mL^–1 penicillin (Sigma), and 2 mM L-glutamine, maintained at 25 °C in a B.O.D. incubator. Using the stationary phase culture on the seventh day, 2.0 × 10^6Leishmania/well were transferred to a 96-well plate containing 1.0 × 10^5 preadhered macrophages/well, following an adapted infection protocol.[44] After applying the compounds at a concentration of 10 μM, 1% DMSO and amphotericin B (3.125 μg mL^–1) were used as controls. Treatments were conducted for 48 h, followed by macrophage lysis using 0.1% SDS solution, which was subsequently neutralized with complete Grace’s medium. To recover promastigote forms, the plate was incubated for 5 days. Fluorescence was measured using a Spectramax fluorometer, with excitation at 490 nm and emission at 520 nm.

Series [6] relates to murine peritoneal macrophages. More on the design: method as in PMID 36375398. Conditions: cited from earlier work.
In series [7] the test system is human monocyte cell line. More on the design: method as in PMID 32272211. The settings on record: 48 h treatment, cited from earlier work.
The test system of series [8] is Vero cells. More on the design: method as in PMID 29877104. The settings on record: 5 × 10^4 cells per well, cited from earlier work.
Series [9] relates to L. amazonensis. The arrangement: method as in PMID 32272211. Conditions: L. amazonensis amastigote stage, 48 h treatment, cited from earlier work.
The subject of series [10] is Vero cells. The arrangement: method as in earlier work. The settings on record: 15 μg mL^–1 (equivalent to 16.23 μM), neutral red cytotoxicity assay; cited from earlier work.
Setting [11] is: all tested concentrations (500 to 7.8 μM).
Where [12] appears, read: high concentrations (500 and 250 μM).
Where [13] appears, read: converted from μg mL^–1, read-out: CC50 (equivalent).

SMILES strings stand for the structures. Like-named read-outs stand apart in the source and are kept apart here. A value given as a limit tells only on which side of the number the result lay.

What is called viability is the share of living cells, or the viability signal relative to a control. A word on the IC50: it is the point on the concentration scale where inhibition reaches its midpoint.

Take `Cc1ccc(C(C)C)cc1OCC(=O)Nc1ccc(F)cc1` [Compound 9, N-(4-Fluorophenyl)-2-(5-isopropyl-2-methylphenoxy)acetamide]: in series [1], the CC50 at 48 h is > 200 µM. In addition, in series [2] (setting [11]), the survival rate result is “above 50%”.

As for `Cc1ccc(C(C)C)cc1OCC(=O)Nc1ccccc1Br` [Compound 4, N-(2-Bromophenyl)-2-(5-isopropyl-2-methylphenoxy)acetamide], the CC50 at 48 h in [1] was > 200 µM. In [3], the CC50 came to 372 µM. For the same compound, the survival rate entry in series [2] (setting [12]) is “below 50%”.

For the compound `Cc1ccc(C(C)C)cc1OCC(=O)Nc1ccc(Cl)cc1` [Compound 3, N-(4-Chlorophenyl)-2-(5-isopropyl-2-methylphenoxy)acetamide], the CC50 at 48 h in series [1] was > 200 µM. Moreover, the CC50 in [3] was 449 µM. Further, the survival rate entry in series [2] (setting [12]) was “below 50%”.

Turning to `Cc1ccc(C(C)C)cc1OCC(=O)Nc1ccc(Br)cc1` [Compound 6, N-(4-Bromophenyl)-2-(5-isopropyl-2-methylphenoxy)acetamide], the CC50 at 48 h in series [1] is > 200 µM. Also, the “cell viability at the highest concentration compared to the control” value (from here on “cell viability … compared to the control”) in series [4] was “no significant differences”. For the same compound, the CC50 in [3] stood at 182 µM. Besides, the survival rate entry in [2] (setting [12]) is listed as “below 50%”.

Regarding `Cc1ccc(C(C)C)cc1OCC(=O)Nc1ccccc1Cl` [Compound 1, N-(2-Chlorophenyl)-2-(5-isopropyl-2-methylphenoxy)acetamide], the CC50 at 48 h in series [1] is > 200 µM. For the same compound, in [4], the “cell viability … compared to the control” value was “no significant differences”. In addition, the CC50 in [3] came to 200 µM. The survival rate result in series [2] (setting [12]) is reported as “below 50%”.

For `Cc1ccc(C(C)C)cc1OCC(=O)Nc1cccc(Cl)c1` [Compound 2, N-(3-Chlorophenyl)-2-(5-isopropyl-2-methylphenoxy)acetamide], the CC50 at 48 h in [1] is > 200 µM. For the same compound, the survival rate result in [2] (setting [11]) was “above 50%”.

On to `Cc1ccc(C(C)C)cc1OCC(=O)Nc1cccc(Br)c1` [Compound 5, N-(3-Bromophenyl)-2-(5-isopropyl-2-methylphenoxy)acetamide], for which the CC50 at 48 h in series [1] is > 200 µM. For the same compound, the “cell viability … compared to the control” value in series [4] is recorded as “no significant differences”. Also, in series [2] (setting [11]), the survival rate result is given as “above 50%”. In addition, in series [5], the viability at 10 µM was ~50% and the IC50 was ~10 µM.

For the compound `Cc1ccc(C(C)C)cc1OCC(=O)Nc1ccccc1F` [Compound 7, N-(2-Fluorophenyl)-2-(5-isopropyl-2-methylphenoxy)acetamide], in series [1], the CC50 at 48 h is > 200 µM. In addition, the “cell viability … compared to the control” value in [4] is listed as “no significant differences”. Further, the survival rate result in [2] (setting [11]) is given as “above 50%”. In addition, in series [5], the viability at 10 µM was ~50% and the IC50 was ~10 µM.

As to `Cc1ccc(C(C)C)cc1OCC(=O)Nc1ccccc1` [Compound 10, 2-(5-Isopropyl-2-methylphenoxy)-N-phenylacetamide], the CC50 at 48 h in [1] was > 200 µM. Also, the survival rate entry in series [2] (setting [11]) is reported as “above 50%”.

Regarding `Cc1ccc(C(C)C)cc1OCC(=O)Nc1cccc(F)c1` [Compound 8, N-(3-Fluorophenyl)-2-(5-isopropyl-2-methylphenoxy)acetamide], the CC50 at 48 h in series [1] was > 200 µM. The CC50 in series [3] turned out to be 337 µM. The survival rate entry in series [2] (setting [12]) was “below 50%”.

For `Cc1ccc(C(C)C)cc1O` [carvacrol], the CC50 in series [6] (24 h treatment, converted from μg mL^–1, read-out: CC50 (equivalent)) is 505 µM; in series [6] (24 h treatment), 75.91 μg mL^–1; in [6] (72 h treatment, converted from μg mL^–1, read-out: CC50 (equivalent)) it was 268 µM; in series [6] (72 h treatment), 40.23 μg mL^–1; in series [7] (setting [13]), 427 µM; in series [7], 64.10 μg mL^–1. For the same compound, the values for the CC50 in [8] (setting [13]) and in series [8] were 572 µM and 86 ± 1.41 μg mL^–1, respectively. For the same compound, the IC50 in [9] (converted from μg mL^–1, read-out: IC50 (equivalent)) is ~182 µM; in series [9], “approximately 27.40 μg mL^–1”.

For the compound `C[C@@H]1[C@H](O)[C@@H](C)/C=C/C=C/C=C/C=C/C=C/C=C/C=C/[C@H](O[C@@H]2O[C@H](C)[C@@H](O)[C@H](N)[C@@H]2O)C[C@@H]2O[C@](O)(C[C@@H](O)C[C@@H](O)[C@H](O)CC[C@@H](O)C[C@@H](O)CC(=O)O[C@H]1C)C[C@H](O)[C@H]2C(=O)O` [amphotericin B], the toxicity entry in series [10] is “over 70%”.
